The test system of assay [1] is C170 xenografts. Format: in vivo. The protocol: Prevention model. The colorectal tumour cell line, C170 was maintained in serial passage in nude mice. For therapy the mice were sacrificed and the tumours excised. The tumour was finely minced and […] pieces were implanted, under anaesthetic, subcutaneously into 30 male mice which had been randomly allocated to 4 experimental groups.
Mice were explanted with 3 mm^3 pieces of C170 xenografts. Groups of mice were treated with 5-FU/leucovorin (12.5 mg/Kg) by intravenous infusion on days 1, 3, 5, 7 and 28. On the same days mice were also injected intraperitonealy with 0.2 mg of SC104 mab. Control mice received either SC104 alone or control mouse IgG antibody with 5-FU/leucovorin. Tumour size was measured by callipers and tumour cross sectional area calculated on days 7, 9, 12, 14 and 16. Animals were weighed to assess the toxicity of treatment. At the termination of the experiment tumours were weighed to assess anti-tumour efficacy.

The test system of another assay is C170 cells. The assay can be described thus: In vitro inhibition of cell growth in combination with cytotoxic drugs, MTS. Format: cell-based. As to conditions: 5 days, FIG. 25. The protocol:
1×10^3 colorectal C170 cells were aliquoted into individual wells of a flat bottomed 96-well plate and left to adhere overnight at 37° C. The following day the cells were treated with cisplatin, mitomycin C, oxaliplatin and tamoxifen at final concentrations of 10, 3, 1, 0.3, 0.1 and 0 μM. Against each concentration of drug the following concentrations of SC104 were titrated: 10, 3, 1, 0.3 and 0 μg/ml. As a negative control 791T/36 at concentrations 100, 30, 10, 3 and 0 μg/ml, was titrated against each concentration of drug used. Duplicate wells were used. Cells were left for 5 days at 37° C. prior to the addition of MTS reagent to each well and optical density reading at 490 nm.

Assay [2] concerns C170 xenografts. In words: C170 xenograft therapeutic model. Format: in vivo, nude mice. As to conditions: administered therapeutically, after C170 xenograft implantation; FIG. 27. On the procedure:
Therapeutic model. The colorectal tumour cell line, C170 was maintained in serial passage in nude mice. For therapy the mice were sacrificed and the tumours excised. The tumour was finely minced and […] pieces were implanted, under anaesthetic, subcutaneously into 30 male mice which had been randomly allocated to 4 experimental groups.
Mice were explanted with 3 mm^3 pieces of C170 xenografts. […] On the same days mice were also injected intraperitonealy with 0.2 mg of SC104 mab. Control mice received either SC104 alone or control mouse IgG antibody with 5FU/leucovorin. Tumour size was measured by callipers and tumour cross sectional area calculated on days 12, 16, 19 and 23.

The test system of assay [3] is C170 xenografts. The format is in vivo. As to conditions: day 6.

Like-named read-outs stand apart in the source and are kept apart here.

As to 5-FU/leucovorin [reference compound], the “inhibition of tumour growth of freshly explanted tumours” value in the assay on C170 xenografts [1] (SC104 200 μg/dose ip, 5-FU/leucovorin at maximum tolerated dose, FIG. 26a) was 50%.

In the case of `CO[C@@]12[C@H](COC(N)=O)C3=C(C(=O)C(C)=C(N)C3=O)N1C[C@@H]1N[C@@H]12` [mitomycin C, Mitomycin C], the “additive killing in combination with SC104” value (from here on “additive killing … with SC104”) in the assay on C170 cells is on record as “additive killing”.

Consider `O=c1[nH]cc(F)c(=O)[nH]1` [5-FU, 5-Fluorouracil, reference compound], for which the “additive killing … with SC104” value in the assay with C170 cells is listed as “additive killing”. Moreover, the survival of mice entry with C170 xenografts [1] (Log Rank, FIG. 26b) is listed as “significant improvement of survival”. For the same compound, the “inhibition of tumour growth” value is 40% in the assay on C170 xenografts [1] (day 9); 45% in the assay on C170 xenografts [1] (day 12); 58% in the assay with C170 xenografts [1] (day 14); “neither 5FU nor SC104 alone significantly inhibited growth” in the assay on C170 xenografts [2]; 62% in the assay with C170 xenografts [3].

Consider `N.N.[Cl][Pt][Cl]` [cisplatin], for which, in the assay with C170 cells, the “additive killing … with SC104” value is “additive killing”.

Turning to `O=C1[O][Pt]2([NH][C@@H]3CCCC[C@H]3[NH]2)[O]C1=O` [oxaliplatin], in the assay on C170 cells, the “additive killing … with SC104” value was “No additive effect”.

As for `CC/C(=C(\c1ccccc1)c1ccc(OCCN(C)C)cc1)c1ccccc1` [tamoxifen], the “additive killing … with SC104” value with C170 cells was “additive killing”.

The values above are taken from patent US8343490B2, “Monoclonal antibody SC104 and derivative thereof specifically binding to a sialyltetraosyl carbohydrate as a potential anti-tumor therapeutic agent” (Cephalon Australia Pty Ltd, priority 2004, dated 2013).
